Reference: US20150065423A1, “RAPID ACTING INJECTABLE FORMULATIONS” (Perosphere, Inc., priority 2013, published 2015)
Converted amounts (≈) assume the structure as drawn.

What was measured:
[1] = "it is believed"; cited from earlier work
[2] = Soluble concentration of nitroglycerin measured by HPLC; details: aqueous with cosolvent or surfactant or cyclodextrin
Text: The resultant suspension was centrifuged and the supernatant withdrawn to become the test article. […] The results are depicted in FIG. 1.

O=[N+]([O-])OCC(CO[N+](=O)[O-])O[N+](=O)[O-] [nitroglycerin]
water solubility [1]: < 1000 µg/mL | solubility ([2]; soluble concentration of nitroglycerin, in presence of 5% aqueous solution of Pluronic F127): ~3800 µg/mL | solubility ([2]; soluble concentration of nitroglycerin, in presence of 5% aqueous solution of Tween 80): ~4500 µg/mL | solubility ([2]; thermodynamic from solid, final concentration of nitroglycerin (solubility limit)): ~1000 µg/mL (≈ 4.4 mM) | solubility ([2]; thermodynamic from solid, soluble concentration of nitroglycerin, in presence of 20% aqueous solution of PEG3350): 2000 µg/mL
